Experimental data taken from PubChem BioAssay (NCI).
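GI50 = concentration required for 50% inhibition of growth. The concentration for full growth arrest is given as TGI.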

Assays:
Assay in all cases: inhibition of tumour cell growth, NCI panel, 384-well format
[1] = test system: 786-0 renal
[2] = test system: A498 renal
[3] = test system: A549 NSCLC
[4] = test system: ACHN renal
[5] = test system: BT-549 breast
[6] = test system: CAKI-1 renal
[7] = test system: CCRF-CEM leukemia
[8] = test system: COLO 205 colon
[9] = test system: DU-145 prostate
[10] = test system: EKVX NSCLC
[11] = test system: HCC-2998 colon
[12] = test system: HCT-116 colon
[13] = test system: HCT-15 colon
[14] = test system: HL-60(TB) leukemia
[15] = test system: HOP-62 NSCLC
[16] = test system: HOP-92 NSCLC
[17] = test system: HS 578T breast
[18] = test system: HT29 colon
[19] = test system: IGROV1 ovarian
[20] = test system: K-562 leukemia
[21] = test system: KM12 colon
[22] = test system: LOX IMVI melanoma
[23] = test system: M14 melanoma
[24] = test system: MALME-3M melanoma
[25] = test system: MCF7 breast
[26] = test system: MDA-MB-231 breast
[27] = test system: MDA-MB-435 melanoma
[28] = test system: MDA-MB-468 breast
[29] = test system: NCI-H226 lung
[30] = test system: NCI-H23 lung
[31] = test system: NCI-H322M lung
[32] = test system: NCI-H460 NSCLC
[33] = test system: NCI-H522 lung
[34] = test system: NCI/ADR-RES ovarian
[35] = test system: OVCAR-3 ovarian
[36] = test system: OVCAR-4 ovarian
[37] = test system: OVCAR-8 ovarian
[38] = test system: PC-3 prostate
[39] = test system: RPMI-8226 leukemia
[40] = test system: RXF 393 renal
[41] = test system: SF-268 CNS
[42] = test system: SF-295 CNS
[43] = test system: SF-539 CNS
[44] = test system: SK-MEL-28 melanoma
[45] = test system: SK-MEL-5 melanoma
[46] = test system: SK-OV-3 ovarian
[47] = test system: SN12C renal
[48] = test system: SNB-19 CNS
[49] = test system: SNB-75 CNS
[50] = test system: SR leukemia
[51] = test system: SW-620 colon
[52] = test system: T-47D breast
[53] = test system: TK-10 renal
[54] = test system: U251 glioblastoma
[55] = test system: UACC-257 melanoma
[56] = test system: UACC-62 melanoma
[57] = test system: UO-31 renal

CC(C)S(=O)(=O)c1ccccc1Nc1nc(Nc2cccc(NC(=O)CN)c2)ncc1Cl
GI50 [1]: 182 nM | TGI [1]: 2080 nM | GI50 [2]: 186 nM | TGI [2]: 11400 nM | GI50 [3]: 106 nM | TGI [3]: 7360 nM | GI50 [4]: 200 nM | TGI [4]: 14700 nM | GI50 [5]: 49.5 nM | TGI [5]: 193 nM | GI50 [6]: 124 nM | TGI [6]: 866 nM | GI50 [7]: < 10 nM | TGI [7]: < 10 nM | GI50 [8]: 19.4 nM | TGI [8]: 128 nM | GI50 [9]: 79.1 nM | TGI [9]: 1710 nM | GI50 [10]: 150 nM | TGI [10]: 1710 nM | GI50 [11]: 187 nM | TGI [11]: 659 nM | GI50 [12]: < 10 nM | TGI [12]: 164 nM | GI50 [13]: 152 nM | TGI [13]: 1250 nM | GI50 [14]: < 10 nM | TGI [14]: < 10 nM | GI50 [15]: 39.1 nM | TGI [15]: 680 nM | GI50 [16]: 135 nM | TGI [16]: 463 nM | GI50 [17]: 45.5 nM | TGI [17]: 205 nM | GI50 [18]: 184 nM | TGI [18]: 1160 nM | GI50 [19]: 141 nM | TGI [19]: 383 nM | GI50 [20]: 25 nM | TGI [20]: 242 nM | GI50 [21]: 19.1 nM | TGI [21]: 474 nM | GI50 [22]: 25.8 nM | TGI [22]: 180 nM | GI50 [23]: 17.7 nM | TGI [23]: 493 nM | GI50 [24]: 399 nM | TGI [24]: 1560 nM | GI50 [25]: 30.1 nM | TGI [25]: 685 nM | GI50 [26]: 93.2 nM | TGI [26]: 445 nM | GI50 [27]: 168 nM | TGI [27]: 1300 nM | GI50 [28]: 17.4 nM | TGI [28]: 42 nM | GI50 [29]: 49.5 nM | TGI [29]: 354 nM | GI50 [30]: 107 nM | TGI [30]: 247 nM | GI50 [31]: 389 nM | TGI [31]: 1730 nM | GI50 [32]: < 10 nM | TGI [32]: 335 nM | GI50 [33]: 77.1 nM | TGI [33]: 622 nM | GI50 [34]: 72.7 nM | TGI [34]: 1140 nM | GI50 [35]: 57.1 nM | TGI [35]: 290 nM | GI50 [36]: 377 nM | TGI [36]: 2070 nM | GI50 [37]: 87.5 nM | TGI [37]: 308 nM | GI50 [38]: 237 nM | TGI [38]: 1490 nM | GI50 [39]: 20.3 nM | TGI [39]: 60.7 nM | GI50 [40]: 21.4 nM | TGI [40]: 167 nM | GI50 [41]: 30.7 nM | TGI [41]: 223 nM | GI50 [42]: 89.1 nM | TGI [42]: 11400 nM | GI50 [43]: 47.2 nM | TGI [43]: 216 nM | GI50 [44]: 217 nM | TGI [44]: 1290 nM | GI50 [45]: 56.3 nM | TGI [45]: 229 nM | GI50 [46]: 290 nM | TGI [46]: 7900 nM | GI50 [47]: 149 nM | TGI [47]: 518 nM | GI50 [48]: 141 nM | TGI [48]: 6120 nM | GI50 [49]: 23.8 nM | TGI [49]: 189 nM | GI50 [50]: < 10 nM | TGI [50]: < 10 nM | GI50 [51]: 29.2 nM | TGI [51]: 436 nM | GI50 [52]: 480 nM | TGI [52]: 3320 nM | GI50 [53]: 185 nM | TGI [53]: 2560 nM | GI50 [54]: 193 nM | TGI [54]: 1600 nM | GI50 [55]: 324 nM | TGI [55]: 1440 nM | GI50 [56]: 34.8 nM | TGI [56]: 213 nM | GI50 [57]: 218 nM | TGI [57]: 10700 nM
